# Tested on: lung cancer cell line NCI-H82
# Assay: Cell proliferation assay, NCI-H82 (CELL-TITER GLO)
# Format: cell-based
# Details: Homo sapiens, NCI-H82, 72 h, NCI-H82 cells, 72 h incubation, cell viability by CELL-TITER GLO, top concentration 1 μM; read-out: EC50, Inhibition of NCl-H82 Cell Proliferation
# Description: The activity of a compound was determined in a cell proliferation assay using the lung cancer cell line NCI-H82. Cells (1,000 cells per well) were cultured with RPMI1640 in a 384-well tissue culture plate. After incubated overnight, the compound was added at predetermined concentrations, starting with 1 μM and followed by a 3-fold serial dilution. After the cells were incubated for 72 h, cell viability was determined using a CELL-TITER GLO assay. The CELL-TITER GLO reagent (25 μL) was added to each well and the luminescence was measured by a multimode microplate reader after a brief period of shaking. EC50 values were determined for the compound. The results are summarized in Table 1, wherein A represents a value no greater than 200 nM, B represents a value greater than 200 nM but no greater than 1 μM, C represents a value greater than 1 μM but no greater than […], and D represents a value greater than 5 μM.
row,EC50 [nM],SMILES
1,≤ 200,"C#Cc1nnc(NC(=O)N[C@@H](COC(N)=O)c2ccc(-c3cccc(N4CCCC4)n3)cc2)s1 [Compound A94, (R)-2-(3-(5-Ethynyl-1,3,4-thiadiazol-2-yl)ureido)-2-(4-(6-(pyrrolidin-1-yl)-pyridin-2-yl)phenyl)ethyl carbamate]"
2,≤ 200,"C#Cc1nnc(NC(=O)N(C)[C@@H](COC(N)=O)c2ccc(-c3cccc(N4CCCC4)n3)cc2)s1 [Compound A95, (R)-2-(3-(5-Ethynyl-1,3,4-thiadiazol-2-yl)-1-methylureido)-2-(4-(6-(pyrrolidin-1-yl)pyridin-2-yl)phenyl)ethyl carbamate]"
3,≤ 200,"C#Cc1nnc(NC(=O)N[C@@H](CO)c2ccc(-c3cccc(N4CCCC4)n3)cn2)s1 [Compound A96, (R)-1-(5-Ethynyl-1,3,4-thiadiazol-2-yl)-3-(2-hydroxy-1-(6-(pyrrolidin-1-yl)-[2,3′-bipyridin]-6′-yl)ethyl)urea]"
4,≤ 200,"C#Cc1nnc(NC(=O)N[C@@H](COC(N)=O)c2ccc(-c3cccc(N4CCCC4)n3)cn2)s1 [Compound A97, (R)-2-(3-(5-Ethynyl-1,3,4-thiadiazol-2-yl)ureido)-2-(6-(pyrrolidin-1-yl)-[2,3′-bipyridin]-6′-yl)ethyl carbamate]"
5,≤ 200,"C#Cc1nc(NC(=O)N[C@@H](CO)c2ccc(-c3cccnc3N(C)C)cc2)cs1 [Compound A98, (R)-1-(1-(4-(2-(Dimethylamino)pyridin-3-yl)phenyl)-2-hydroxyethyl)-3-(2-ethynylthiazol-4-yl)urea]"
6,≤ 200,"C#Cc1nc(NC(=O)N[C@@H](COC(N)=O)c2ccc(-c3cccnc3N(C)C)cc2)cs1 [Compound A99, (R)-2-(4-(2-(Dimethylamino)pyridin-3-yl)phenyl)-2-(3-(2-ethynylthiazol-4-yl)-ureido)ethyl carbamate]"
7,≤ 200,"C#Cc1nc(NC(=O)N[C@@H](COC(N)=O)c2ccc(-c3cccnc3N(C)C)c(Cl)c2)cs1 [Compound A101, (R)-2-(3-Chloro-4-(2-(dimethylamino)pyridin-3-yl)phenyl)-2-(3-(2-ethynyl-thiazol-4-yl)ureido)ethyl carbamate]"
8,≤ 200,"C#Cc1nc(NC(=O)N[C@@H](COC(N)=O)c2ccc(-c3cccnc3N3CC(F)(F)C3)cc2)cs1 [Compound A103, (R)-2-(4-(2-(3,3-Difluoroazetidin-1-yl)pyridin-3-yl)phenyl)-2-(3-(2-ethynyl-thiazol-4-yl)ureido)ethyl carbamate]"
9,≤ 200,"C#Cc1nc(NC(=O)N[C@@H](COC(N)=O)c2ccc(-c3cccc4ccnc(O)c34)cc2)cs1 [Compound A105, (R)-2-(3-(2-Ethynylthiazol-4-yl)ureido)-2-(4-(1-hydroxyisoquinolin-8-yl)phenyl)-ethyl carbamate]"
10,200 to 1000,"C#Cc1nnc(NC(=O)N[C@@H](CO)c2ccc(-c3cccc4ccnc(O)c34)cc2)s1 [Compound A108, (R)-1-(5-Ethynyl-1,3,4-thiadiazol-2-yl)-3-(2-hydroxy-1-(4-(1-hydroxyisoquinolin-8-yl)phenyl)ethyl)urea]"
11,≤ 200,"C#Cc1nc(NC(=O)N(C)[C@@H](CO)c2ccc(-c3cccc4ncsc34)cc2)cs1 [Compound A111, (R)-1-(1-(4-(Benzo[d]thiazol-7-yl)phenyl)-2-hydroxyethyl)-3-(2-ethynylthiazol-4-yl)-1-methylurea]"
12,≤ 200,"C#Cc1nc(N(C)C(=O)N[C@@H](CO)c2ccc(-c3cccc4ncsc34)cc2)cs1 [Compound A112, (R)-3-(1-(4-(Benzo[d]thiazol-7-yl)phenyl)-2-hydroxyethyl)-1-(2-ethynylthiazol-4-yl)-1-methylurea]"
13,200 to 1000,"C#Cc1nc(N(C)C(=O)N(C)[C@@H](CO)c2ccc(-c3cccc4ncsc34)cc2)cs1 [Compound A113, (R)-1-(1-(4-(Benzo[d]thiazol-7-yl)phenyl)-2-hydroxyethyl)-3-(2-ethynylthiazol-4-yl)-1,3-dimethylurea]"
14,≤ 200,"C#Cc1nc(NC(=O)N[C@@H](COC(=O)[C@@H](N)C(C)C)c2ccc(-c3cccc4ncsc34)cc2)cs1 [Compound A116, (R)-2-(4-(Benzo[d]thiazol-7-yl)phenyl)-2-(3-(2-ethynylthiazol-4-yl)ureido)ethyl L-valinate]"

# Further lines, the compound ahead of its results:
row,SMILES,EC50 [nM]
1,"C#Cc1nc(NC(=O)N[C@@H](CO)c2ccc(-c3cccnc3N(C)C)c(Cl)c2)cs1 [Compound A100, (R)-1-(1-(3-Chloro-4-(2-(dimethylamino)pyridin-3-yl)phenyl)-2-hydroxyethyl)-3-(2-ethynylthiazol-4-yl)urea]",≤ 200
2,"C#Cc1nc(NC(=O)N[C@@H](CO)c2ccc(-c3cccnc3N3CC(F)(F)C3)cc2)cs1 [Compound A102, (R)-1-(1-(4-(2-(3,3-Difluoroazetidin-1-yl)pyridin-3-yl)phenyl)-2-hydroxyethyl)-3-(2-ethynylthiazol-4-yl)urea]",≤ 200
3,"C#Cc1nc(NC(=O)N[C@@H](CO)c2ccc(-c3cccc4ccnc(O)c34)cc2)cs1 [Compound A104, (R)-1-(2-Ethynylthiazol-4-yl)-3-(2-hydroxy-1-(4-(1-hydroxyisoquinolin-8-yl)-phenyl)ethyl)urea]",≤ 200
4,"C#Cc1nc(NC(=O)N[C@@H](CO)c2ccc(-c3cccc4ccnc(O)c34)c(Cl)c2)cs1 [Compound A107, (R)-1-(1-(3-Chloro-4-(1-hydroxyisoquinolin-8-yl)phenyl)-2-hydroxyethyl)-3-(2-ethynylthiazol-4-yl)urea]",≤ 200
5,"C#Cc1nc(NC(=O)N[C@@H](CO)c2ccc(-c3cccc4ncnc(O)c34)cc2)cs1 [Compound A109, (R)-1-(2-Ethynylthiazol-4-yl)-3-(2-hydroxy-1-(4-(4-hydroxyquinazolin-5-yl)phenyl)ethyl)urea]",≤ 200
6,"C#Cc1nc(NC(=O)N[C@@H](CO)c2ccc(-c3cccc4ncnc(O)c34)c(Cl)c2)cs1 [Compound A110, (R)-1-(1-(3-Chloro-4-(4-hydroxyquinazolin-5-yl)phenyl)-2-hydroxyethyl)-3-(2-ethynylthiazol-4-yl)urea]",≤ 200
7,"C#Cc1nc(NC(=O)N[C@@H](CO)c2ccc(-c3cccc4ncsc34)cn2)cs1 [Compound A114, (R)-1-(1-(5-(Benzo[d]thiazol-7-yl)pyridin-2-yl)-2-hydroxyethyl)-3-(2-ethynyl-thiazol-4-yl)urea]",≤ 200
8,"C#Cc1nc(NC(=O)N[C@@H](CS(N)(=O)=O)c2ccc(-c3ccc(F)c4ncsc34)c(Cl)c2)cs1 [Compound A115, (R)-2-(3-Chloro-4-(4-fluorobenzo[d]thiazol-7-yl)phenyl)-2-(3-(2-ethynylthiazol-4-yl)ureido)ethane-1-sulfonamide]",≤ 200
9,"C#Cc1nc(NC(=O)N[C@@H](COC(=O)CCC/C=C\C/C=C\C/C=C\C/C=C\CCCCC)c2ccc(-c3cccc4ncsc34)cc2)cs1 [Compound A117, (5Z,8Z,11Z,14Z)—(R)-2-(4-(Benzo[d]thiazol-7-yl)phenyl)-2-(3-(2-ethynylthiazol-4-yl)ureido)ethyl icosa-5,8,11,14-tetraenoate]",≤ 200
10,"C#Cc1ncc(NC(=O)N[C@@H](CO)c2ccc(-c3cccc4ncsc34)cc2)s1 [Compound A118, (R)-1-(1-(4-(Benzo[d]thiazol-7-yl)phenyl)-2-hydroxyethyl)-3-(2-ethynylthiazol-5-yl)urea]",200 to 1000
11,"C#Cc1nc(NC(=O)N[C@@H](CO)c2ccc(-c3cccc4ncsc34)cc2)c(C)s1 [Compound A119, (R)-1-(1-(4-(Benzo[d]thiazol-7-yl)phenyl)-2-hydroxyethyl)-3-(2-ethynyl-5-methylthiazol-4-yl)urea]",≤ 200

# From US20240101546A1, “HETEROARYL-ACETYLENES, PHARMACEUTICAL COMPOSITIONS THEREOF, AND THEIR THERAPEUTIC APPLICATIONS” (Eubulus Biotherapeutics Inc., priority 2020, published 2024)
